Patent US20220341922A1, “FLUORESCENT PROBE FOR USE IN DETECTION OF BRAIN TUMOR” (The University of Tokyo, priority 2019, published 2022)

What was measured:
calpain 1 [1] = target: T1, calpain 1 (Homo sapiens, UniProt P07384); assay: Change in fluorescence intensity of candidate enzymes using inhibitors; assay type: biochemical; conditions: candidate enzyme calpain 1
T1 sequence (P07384 1-714): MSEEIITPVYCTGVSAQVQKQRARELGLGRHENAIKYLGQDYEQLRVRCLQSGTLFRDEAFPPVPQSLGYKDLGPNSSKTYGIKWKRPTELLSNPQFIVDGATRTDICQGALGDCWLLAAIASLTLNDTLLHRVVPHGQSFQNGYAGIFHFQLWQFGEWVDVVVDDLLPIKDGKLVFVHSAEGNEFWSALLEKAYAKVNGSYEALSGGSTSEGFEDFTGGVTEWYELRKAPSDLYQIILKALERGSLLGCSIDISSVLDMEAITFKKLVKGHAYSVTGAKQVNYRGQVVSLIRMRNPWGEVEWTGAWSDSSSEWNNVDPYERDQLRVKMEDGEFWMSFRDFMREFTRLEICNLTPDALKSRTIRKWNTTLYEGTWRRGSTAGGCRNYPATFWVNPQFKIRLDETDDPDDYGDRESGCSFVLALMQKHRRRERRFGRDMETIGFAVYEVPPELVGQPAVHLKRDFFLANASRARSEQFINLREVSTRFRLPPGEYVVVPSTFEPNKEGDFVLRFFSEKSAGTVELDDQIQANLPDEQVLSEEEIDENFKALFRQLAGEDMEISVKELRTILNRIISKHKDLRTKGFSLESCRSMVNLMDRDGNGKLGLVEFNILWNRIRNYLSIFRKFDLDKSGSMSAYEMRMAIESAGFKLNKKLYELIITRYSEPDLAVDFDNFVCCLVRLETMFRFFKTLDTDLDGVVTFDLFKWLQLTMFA
T1 sequence (P04632 1-268 partner): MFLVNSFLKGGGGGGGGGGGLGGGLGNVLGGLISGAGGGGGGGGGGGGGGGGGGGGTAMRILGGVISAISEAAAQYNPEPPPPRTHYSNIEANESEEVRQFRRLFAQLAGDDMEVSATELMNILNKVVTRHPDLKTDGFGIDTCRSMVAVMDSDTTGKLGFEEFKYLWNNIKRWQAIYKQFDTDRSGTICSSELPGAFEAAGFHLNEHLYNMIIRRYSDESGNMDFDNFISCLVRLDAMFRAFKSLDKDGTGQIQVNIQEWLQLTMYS

cathepsin D [2] = target: T2, cathepsin D (Homo sapiens, UniProt P07339); assay: as above; assay type: biochemical; conditions: candidate enzyme cathepsin D
[3] = test system: fresh glioblastoma and peritumoral tissue; assay: Screening by fluorescent probe on fresh glioblastoma and peritumoral tissue specimens; conditions: for tumor-specific fluorescent labeling as compared with the surrounding tissue: 50 μM probe solution in PBS, 0.5% v/v DMSO, Ex 465 nm, Em 515 nm, FIGS. 1 and 2; for fluorescence intensity in the tumor: 50 μM probe solution
Experimental: The fluorescent intensity of fresh glioblastoma and peritumoral tissue were compared using the fluorescent probes YK190, YK213, YK19, and YK281 synthesized in Example 1. As a comparative example, hydroxymethyl rhodamine green (HRMG) having no dipeptide site was used.
50 μM probe solutions (200 μL) in PBS, containing 0.5% v/v DMSO as a co-solvent was added dropwise to each specimen, and the fluorescence intensity was measured over time using Maestro In Vivo Imaging System Ex. • Excitation wavelength: 465 nm • Emission wavelength: 515 nm

calpain 1 [4] = target: T1, calpain 1; assay: Reaction of fluorescent probe with purified enzyme; assay type: biochemical; conditions: purified calpain 1; FIG. 4
[5] = test system: calpain 1 knocked down in U87 glioblastoma cell line; assay: Verification by siRNA knock-down using U87 cell line; assay type: cell-based; conditions: calpain 1 knocked down by siRNA, 48 hours culture; FIG. 5
Experimental: (§1) Calpain 1 and cathepsin D were knocked down by siRNA in a cell line, and a reaction with the fluorescent probe YK190 was observed. The experiment was conducted in accordance with the procedure shown below.
(§2) Transfection of U87, a glioblastoma cell line, was done with siRNA utilizing lipofectamine. A reaction with a fluorescent probe was observed after culture for 48 hours.

[6] = test system: cathepsin D knocked down in U87 glioblastoma cell line; assay: as above; assay type: cell-based; conditions: 48 hours culture, FIG. 5
Experimental: as §1, §2

cathepsin D [7] = target: T2, cathepsin D; assay: Reaction of fluorescent probe with purified enzyme; assay type: biochemical; conditions: FIG. 4

T2 sequence (P07339 65-412, species assumed): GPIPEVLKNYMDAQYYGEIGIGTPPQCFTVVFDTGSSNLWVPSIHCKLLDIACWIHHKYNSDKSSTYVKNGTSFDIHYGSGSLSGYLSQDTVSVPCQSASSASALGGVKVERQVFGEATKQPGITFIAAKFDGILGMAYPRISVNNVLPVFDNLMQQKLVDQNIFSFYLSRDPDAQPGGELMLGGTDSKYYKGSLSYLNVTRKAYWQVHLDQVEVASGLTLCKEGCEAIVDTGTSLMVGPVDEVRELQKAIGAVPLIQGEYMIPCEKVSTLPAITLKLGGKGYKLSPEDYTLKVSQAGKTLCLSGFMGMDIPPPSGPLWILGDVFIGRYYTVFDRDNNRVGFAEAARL

COCCOCCOC(=O)N[C@@H](CC(C)C)C(=O)N[C@@H](Cc1ccccc1)C(=O)C(=O)NC1CC1 [SNJ-1945]
change in fluorescence intensity with inhibitor (calpain 1 [1]): fluorescence suppression
change in fluorescence intensity with inhibitor (cathepsin D [2]): fluorescence suppression

N[C@@H](Cc1c[nH]cn1)C(=O)O [YK213, Histidine]
tumor-specific fluorescent labeling as compared with the surrounding tissue [3]: fluorescent labeling was performed in a tumor-specific manner
fluorescence intensity in the tumor ([3]; FIG. 2): high fluorescence intensity

N=C(N)NCCC[C@H](N)C(=O)O [YK190, Arginine]
tumor-specific fluorescent labeling as compared with the surrounding tissue [3]: fluorescent labeling was performed in a tumor-specific manner
fluorescence intensity in the tumor ([3]; FIG. 2): high fluorescence intensity
fluorescence intensity relative to YK213 ([3]; in the tumor, FIG. 2): about two times that of YK213
change in fluorescence intensity by reaction with the probe (calpain 1 [4]): significant increase in fluorescence intensity
fluorescence intensity compared to the control U87 cell line [5]: reduced fluorescence intensity
fluorescence intensity compared to the control U87 cell line [6]: reduced fluorescence intensity
change in fluorescence intensity by reaction with the probe (cathepsin D [7]): significant increase in fluorescence intensity

N[C@@H](Cc1ccc(O)cc1)C(=O)O [YK19, Tyrosine]
tumor-specific fluorescent labeling as compared with the surrounding tissue [3]: a fluorescent response was also well-obtained in a tumor-specific manner
